Results from patent US7803795B2, “Phthalazine derivatives as parp inhibitors” (Janssen Pharmaceutica N.V., priority 2004, dated 2010).
pIC50: −log10 of the molar value.

Columns and labels:
[1] = system: heart (ischemia and reperfusion); conditions: rabbits, cited from earlier work
distal colon (colitis) = conditions: rats, colitis by intraluminal trinitrobenzene sulfonic acid in 50% ethanol; cited from earlier work
PARP-1 enzyme = target: T1, PARP-1 enzyme (Homo sapiens, UniProt P09874); assay: in vitro filtration assay for PARP-1 inhibitory activity; assay type: biochemical; conditions: [32P]-NAD, histones, nicked DNA; dose-response 10^-5 M to 10^-8 M; read-out: in vitro filter assay PARP-1 pIC50 (converted)
T1 construct: made in house
T1 sequence (P09874 whole entry): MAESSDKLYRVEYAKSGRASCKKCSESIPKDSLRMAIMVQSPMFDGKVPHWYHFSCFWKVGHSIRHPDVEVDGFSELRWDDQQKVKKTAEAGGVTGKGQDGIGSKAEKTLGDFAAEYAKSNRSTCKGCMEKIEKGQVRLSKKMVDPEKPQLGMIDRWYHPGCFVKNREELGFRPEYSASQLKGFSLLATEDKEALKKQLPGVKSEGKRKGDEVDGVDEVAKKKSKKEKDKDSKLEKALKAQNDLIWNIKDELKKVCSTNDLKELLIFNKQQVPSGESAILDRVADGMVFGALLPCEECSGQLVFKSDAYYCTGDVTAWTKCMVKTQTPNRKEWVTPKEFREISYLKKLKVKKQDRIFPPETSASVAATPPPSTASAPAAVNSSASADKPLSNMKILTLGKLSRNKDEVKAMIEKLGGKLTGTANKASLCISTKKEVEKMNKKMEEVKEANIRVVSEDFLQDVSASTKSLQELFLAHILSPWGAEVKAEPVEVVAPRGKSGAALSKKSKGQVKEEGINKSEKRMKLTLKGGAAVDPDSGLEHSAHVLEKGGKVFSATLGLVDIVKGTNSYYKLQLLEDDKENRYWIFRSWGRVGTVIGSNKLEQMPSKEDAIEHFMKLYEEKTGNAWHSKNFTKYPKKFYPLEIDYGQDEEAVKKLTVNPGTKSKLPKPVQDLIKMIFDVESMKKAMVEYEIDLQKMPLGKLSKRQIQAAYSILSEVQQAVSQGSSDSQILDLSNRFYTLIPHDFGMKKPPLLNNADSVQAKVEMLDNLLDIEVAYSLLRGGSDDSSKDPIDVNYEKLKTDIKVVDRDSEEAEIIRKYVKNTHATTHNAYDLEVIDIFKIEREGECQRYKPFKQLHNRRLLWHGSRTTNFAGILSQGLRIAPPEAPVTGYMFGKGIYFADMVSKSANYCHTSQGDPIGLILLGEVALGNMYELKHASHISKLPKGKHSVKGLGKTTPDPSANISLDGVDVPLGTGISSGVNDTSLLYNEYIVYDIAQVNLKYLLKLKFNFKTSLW
Description: In Vitro Filtration Assay for PARP-1 Inhibitory Activity
Compounds of the present invention were tested in an in vitro filtration assay assessing PARP-1 activity (triggered in the presence of nicked DNA) by means of its histone poly (ADP-ribosylation activity using [^32P]-NAD as ADP-ribosyl donor. The radioactive ribosylated histones were precipitated by trichloroacetic acid (TCA) in 96-well filterplates and the incorporated [^32P] measured using a scintillation counter
A mixture of histones (stock solution: 5 mg/ml in H2O), NAD^+ (stock solution: 100 mM in H2O), and [^32P]-NAD^+ in incubation buffer (50 mM Tris/HCl, pH 8; 0.2 mM DTT; 4 mM MgCl2) was made. A mixture of the PARP-1 enzyme (5-10 μg/ml) and nicked DNA was also made. The nicked DNA was prepared as described in the in vitro SPA for PARP-1 inhibitory activity. Seventy-five μl of the PARP-1 enzyme/DNA mixture together with 1 μl of compound in DMSO and 25 μl of histones-NAD^+/[^32P]-NAD^+ mixture was added per well of a 96-well filterplate (0.45 μm, supplier Millipore). The final concentrations in the incubation mixture were 2 μg/ml for the histones, 0.1 mM for the NAD^+, […] (0.5 μC) for the [^32P]-NAD^+ and 2 μg/ml for the nicked DNA. Plates were incubated for 15 min. at room temperature and the reaction was terminated by the addition of 10 μl ice cold 100% TCA followed by the addition of 10 μl ice-cold BSA solution (1% in H2O). The protein fraction was allowed to precipitate for 10 min. at 4° C. and plates were vacuum filtered. The plates were subsequently washed with, for each well, 1 ml of 10% ice cold TCA, 1 ml of 5% ice cold TCA and 1 ml of 5% TCA at room temperature. Finally 100 μl of scintillation solution (Microscint 40, Packard) was added to each well and the plates were transferred to a TopCountNXT™ (supplier: Packard) for scintillation counting and values were expressed as counts per minute (cpm). For each experiment, controls (containing PARP-1 enzyme and DMSO without compound), a blank incubation (containing DMSO but no PARP-1 enzyme or compound) and samples (containing PARP-1 enzyme and compound dissolved in DMSO) were run in parallel. All compounds tested were dissolved and eventually further diluted in DMSO. In first instance, compounds were tested at a concentration of 10^−5M. […] In each test, the blank value was subtracted from both the control and the sample values. The control sample represented maximal PARP-1 enzyme activity. For each sample, the amount of cpm was expressed as a percentage of the mean cpm value of the controls. When appropriate, IC50-values (concentration of the drug, needed to reduce the PARP-1 enzyme activity to 50% of the control) were computed using linear interpolation between the experimental points just above and below the 50% level. Herein the effects of test compounds are expressed as pIC50 (the negative log value of the IC50-value). As a reference compound, 4-amino-1,8-naphthalimide was included to validate the filtration assay.

TANK-2 enzyme = target: T2, TANK-2 enzyme (Homo sapiens, UniProt Q9H2K2); assay: in vitro Scintillation Proximity Assay (SPA) for TANK-2 inhibitory activity; assay type: biochemical
T2 construct: His tag (inferred from capture on a Ni-coated plate); made in house
T2 sequence (Q9H2K2 1-1166): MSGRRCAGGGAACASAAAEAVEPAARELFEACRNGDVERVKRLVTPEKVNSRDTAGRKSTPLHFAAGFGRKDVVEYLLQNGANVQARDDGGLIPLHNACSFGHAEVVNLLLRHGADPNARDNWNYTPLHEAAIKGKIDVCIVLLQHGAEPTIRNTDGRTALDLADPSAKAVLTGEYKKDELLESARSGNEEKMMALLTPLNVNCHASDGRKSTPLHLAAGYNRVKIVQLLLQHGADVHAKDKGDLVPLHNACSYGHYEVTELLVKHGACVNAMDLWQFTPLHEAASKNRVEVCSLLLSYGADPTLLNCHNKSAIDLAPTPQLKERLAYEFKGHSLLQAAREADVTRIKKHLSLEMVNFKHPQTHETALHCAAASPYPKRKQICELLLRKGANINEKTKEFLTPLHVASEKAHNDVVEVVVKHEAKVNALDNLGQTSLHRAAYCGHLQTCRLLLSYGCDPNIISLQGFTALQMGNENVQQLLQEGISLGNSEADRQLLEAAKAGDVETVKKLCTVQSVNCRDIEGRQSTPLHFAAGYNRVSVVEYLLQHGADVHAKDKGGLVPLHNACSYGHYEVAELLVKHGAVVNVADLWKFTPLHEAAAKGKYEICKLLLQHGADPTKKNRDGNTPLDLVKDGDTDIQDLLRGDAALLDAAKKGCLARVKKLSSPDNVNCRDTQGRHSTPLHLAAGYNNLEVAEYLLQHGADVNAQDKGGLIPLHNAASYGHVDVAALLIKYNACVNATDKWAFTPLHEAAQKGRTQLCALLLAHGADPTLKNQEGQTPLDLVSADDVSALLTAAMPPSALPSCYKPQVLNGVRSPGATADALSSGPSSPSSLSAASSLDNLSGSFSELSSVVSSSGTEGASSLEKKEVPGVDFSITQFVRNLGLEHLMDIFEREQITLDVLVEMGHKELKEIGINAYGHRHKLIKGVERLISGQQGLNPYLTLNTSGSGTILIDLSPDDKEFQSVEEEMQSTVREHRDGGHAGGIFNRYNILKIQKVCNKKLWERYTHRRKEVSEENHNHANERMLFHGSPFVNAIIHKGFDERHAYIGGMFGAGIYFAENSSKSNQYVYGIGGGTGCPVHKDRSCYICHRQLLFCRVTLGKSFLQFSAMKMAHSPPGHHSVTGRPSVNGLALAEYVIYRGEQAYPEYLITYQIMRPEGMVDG
Description: In Vitro Scintillation Proximity Assay (SPA) for Tank-2 Inhibitory Activity
Compounds of the present invention were tested in an in vitro assay based on SPA technology with Ni Flash plates (96 or 384 well).
In principle, the assay relies upon SPA technology for the detection of auto-poly(ADP-ribosylation of TANK-2 protein using [^3H]-nicotinamide adenine dinucleotide ([^3H]-NAD^+) as ADP-ribosyl donor.
A stock solution of [^3H]-NAD^+/NAD was made by adding 64.6 μl of [^3H]-NAD^+ (0.1 mCi/ml, supplier: Perkin Elmer) and 46.7 μl NAD-stock (10.7 mM, stored at −20° C., supplier Roche) to 1888.7 μl assay buffer (60 mM Tris/HCl, pH 7.4; 0.9 mM DTT; 6 mM MgCl2). The TANK-2 enzyme was produced as described in EP1238063.60 μl of assay buffer, together with 1 μl of compound in DMSO, 20 μl of [^3H]-NAD^+/NAD and 20 μl of TANK-2 enzyme (final concentration 6 μg/ml) was added per well into a 96-well Ni-coated flash plate (Perkin Elmer). After incubation of the mixture for 120 min. at room temperature, the reaction was terminated by adding 60 μl of stopsolution (42.6 mg NAD in 6 ml H2O). The plates were covered with a plate sealer and placed in a TopCountNXT™ (Packard) for scintillation counting. Values were expressed as counts per minute (cpm). For each experiment, controls (containing TANK-2 enzyme and DMSO without compound), a blank incubation (containing DMSO but no TANK-2 enzyme or compound) and samples (containing TANK-2 enzyme and compound dissolved in DMSO) were run in parallel. All compounds tested were dissolved and eventually further diluted in DMSO. […] In each test, the blank value was subtracted from both the control and the sample values. The control sample represented maximal TANK-2 enzyme activity. For each sample, the amount of cpm was expressed as a percentage of the mean cpm value of the controls. When appropriate, IC50-values (concentration of the drug, needed to reduce the TANK-2 enzyme activity to 50% of the control) were computed using linear interpolation between the experimental points just above and below the 50% level. Herein the effects of test compounds are expressed as pIC50 (the negative log value of the IC50-value). As reference compounds, 3-aminobenzamide and 4-amino-1,8-naphthalimide were included to validate the SPA assay. Herein the assay was described using 96-well plates. In the assay using 384-well plates the same final concentrations were used and volumes were adapted.

IC50 (PARP-1 enzyme) [nM]	melting point [°C]	pIC50 (TANK-2 enzyme)	SMILES	reduced infarct size ([1]; single injection 1 mg/kg)	reductions in infarct size in the heart ([1]; single injection 10 mg/kg, one minute before occlusion or one minute before reperfusion)	effect on inflammatory response and distal colon (distal colon (colitis))
			Oc1cccc2c(O)nccc12 [1,5-dihydroxyisoquinoline]	38-48%		
			NC(=O)c1cccc(N)c1 [3-amino-benzamide]		32-42%	reduced the inflammatory response
17.2	226.9		O=c1[nH]nc(C2CCN(CC(O)COc3ccc(F)cc3)CC2)c2ccccc12 (centres unmarked) [Compound 2]			
270	222	< 5.00	CC(=O)N1CCC(c2n[nH]c(=O)c3ccccc23)CC1 [Compound 5]			
195	> 300	< 5.00	NC(=O)N1CCC(c2n[nH]c(=O)c3ccccc23)CC1 [Compound 6]			
88.9	259	5.02	N#CCN1CCC(c2n[nH]c(=O)c3ccccc23)CC1 [Compound 7]			
29	202	< 5.00	NCCN1CCC(c2n[nH]c(=O)c3ccccc23)CC1 [Compound 8]			
15.5	182	< 5.00	NCC1CCN(c2n[nH]c(=O)c3ccccc23)CC1 [Compound 9]			
24.3	238	< 5.00	O=c1[nH]nc(N[C@H]2CCN[C@@H](Cc3ccccc3)C2)c2ccccc12 [Compound 10]			
378	140	< 5.00	CCOC(=O)N1CC[C@H](Nc2n[nH]c(=O)c3ccccc23)C[C@@H]1Cc1ccccc1 [Compound 16]			
